Several values for one entry are separate records, joined by “and”; a condition that tells them apart may be missing. Identical values can stand only once. Entries after “also recorded” stand apart in the source; their conditions may differ.
What was measured:
[1] = Storage stability of labeling precursor; format: physicochemical; conditions: solid, stored at 4 °C
[2] = Radiometabolite analysis / in vivo metabolic stability in BALB/c mice; design: species or system mouse
Method: Venous blood samples were collected at 5, 15, 30, and 60 min p.i. via the mouse tail vein and further processed. Blood cells were separated by centrifugation (13,000 rpm × 5 min). Precipitation of proteins in the supernatant was achieved by the addition of 2 volume parts of MeOH, and the samples were centrifuged again (13,000 rpm × 5 min). Fractions of blood cells, proteins, and plasma were measured in a Wizard gamma counter to determine radioactivity per sample. The clear plasma supernatant was injected onto a Shimadzu HPLC system.
The samples were analyzed using a Phenomenex Luna 10u C18 [2] 100 A, 250 × 4.6 mm column at a constant flow rate of 1 mL min^−1 and the following gradient with water/0.2 % TFA as solvent A and CH3CN as solvent B: 0–7.5 min 20 % B, 7.5–15 min gradient to 90 % B, 15–20 min 90 % B.

PSMA+ LNCaP tumor [3] = experiment: Dynamic PET imaging in LNCaP tumor-bearing BALB/c nude mice; format: in vivo, mouse
Method: PET imaging experiments were carried out in LNCaP and PC3 tumor-bearing Balb/c nude mice (Charles River Laboratories, Quebec, Canada). Male Balb/c nude mice were housed under standard conditions with free access to standard food and tap water. LNCaP and PC3 cells (5 × 10^6 cells in 100 μL of PBS) were injected into the upper left flank of the mice (20–24 g). Before injecting LNCaP cells, the mice received a 1.0-mg/pellet containing testosterone in a 60-day release preparation (Innovative Research of America, Sarasota, FL, USA). The pellet was implanted subcutaneously into the upper right flank in order to provide a constant level of testosterone needed by the androgen receptor positive LNCaP cells. Tumors reached sizes of approximately 1 cm^3 which were suitable for all in vivo experiments. General anesthesia of tumor-bearing mice was induced with inhalation of isoflurane in 40 % oxygen/60 % nitrogen (gas flow = […]), and the mice were subsequently fixed in prone position. The body temperature was kept constant at 37 °C for the entire experiment. The mice were positioned in a prone position into the center of the field of view. A transmission scan for attenuation correction was not acquired. […] For blocking studies, the animals were pre-dosed with 300 μg of DCFPyL in 50 μL saline about 10 min prior to radiotracer injection. Data acquisition was performed over 60 min in a 3D list mode. The dynamic list mode data were sorted into sinograms with 53 time frames (10 × 2, 8 × 5, 6 × 10, 6 × 20, 8 × 60, 10 × 120, 5 × 300 s). The frames were reconstructed using maximum a posteriori (MAP) as reconstruction mode. The pixel size was 0.085 × 0.085 × 0.121 mm^3 (256 × 256 × 63), and the resolution in the center of the field of view was 1.8 mm. No correction for partial volume effects was applied. The image files were processed using the ROVER v 2.0.51 software (ABX GmbH, Radeberg, Germany). Masks defining 3D regions of interest (ROI) were set and the ROIs were defined by thresholding. Mean standardized uptake values [SUV]mean = (activity/mL tissue)/(injected activity/body weight), mL/g, were calculated for each ROI. Time-activity curves (TACs) were generated for the dynamic scans only. All semi-quantified PET data are presented as means ± SEM. Statistical difference for the blocking study was tested by unpaired Student’s t test and was considered significant for P < 0.05.

PSMA− PC3 tumor [4] = experiment: Dynamic PET imaging in PC3 tumor-bearing BALB/c nude mice; format: in vivo, mouse; conditions: 60 min p.i.
Method: PET imaging experiments were carried out in LNCaP and PC3 tumor-bearing Balb/c nude mice (Charles River Laboratories, Quebec, Canada). Male Balb/c nude mice were housed under standard conditions with free access to standard food and tap water. LNCaP and PC3 cells (5 × 10^6 cells in 100 μL of PBS) were injected into the upper left flank of the mice (20–24 g). Before injecting LNCaP cells, the mice received a 1.0-mg/pellet containing testosterone in a 60-day release preparation (Innovative Research of America, Sarasota, FL, USA). The pellet was implanted subcutaneously into the upper right flank in order to provide a constant level of testosterone needed by the androgen receptor positive LNCaP cells. Tumors reached sizes of approximately 1 cm^3 which were suitable for all in vivo experiments. General anesthesia of tumor-bearing mice was induced with inhalation of isoflurane in 40 % oxygen/60 % nitrogen (gas flow = […]), and the mice were subsequently fixed in prone position. The body temperature was kept constant at 37 °C for the entire experiment. The mice were positioned in a prone position into the center of the field of view. A transmission scan for attenuation correction was not acquired. […] Mean standardized uptake values [SUV]mean = (activity/mL tissue)/(injected activity/body weight), mL/g, were calculated for each ROI. […] All semi-quantified PET data are presented as means ± SEM. […]

[5] = Stability of the product in saline (quality control); format: physicochemical; conditions: up to 4 h
Method: Radio-TLC analysis on silica gel plates gave a Rf value of 0.6 in 95 % CH3CN/H2O (Additional file 1: Figure S4).
[^18F]fluoride. Radio-TLC analysis on silica gel plates gave a Rf value of 0.6 in 95 % CH3CN/H2O (Additional file 1: Figure S4), and the product was stable (>95 %) in saline of up to 4 h.

PSMA+ LNCaP tumor [6] = experiment: Tracer kinetic analysis (reversible two-tissue compartmental model), LNCaP tumors; format: in vivo, mouse
Method: (§1) Tracer kinetic analysis was performed using a two-tissue compartmental model using dynamically acquired PET imaging data. Full details on tracer kinetic analysis are given in the Additional file 1. […] Tracer kinetic analysis was carried out with PET imaging data acquired dynamically from PSMA+ LNCaP and PSMA− PC3 tumor-bearing mice (see Fig. 7). Four kinetic parameters (K1, k2, k3, k4) describing the flow of the radiotracer from the blood to the tissue (K1) and from the tissue into the blood (k2), binding of the radiotracer to the tissue (k3) and dissociation from the tissue (k4), were calculated. The analysis was performed by fitting the measured TACs with a two-exponential model of the general form as described, e.g., by van den Hoff (Additional file 1: Figure S2). Tracer kinetic analysis was performed using a two-tissue compartmental model using dynamically acquired PET imaging data. A volume of interest (VOI) was defined for the tumor using the Rover software (ABX GmbH, Dresden, Germany) by applying a threshold of 50% SUVmax within an ellipsoid mask around the tumor on an image representing the average of the last 40 min of the acquisition (i.e. excluding the tracer uptake phase). Image derived input functions were obtained from regions around the heart, defined by the injected blood bolus visible in the first few time fames of the dynamic acquisitions, using a threshold of 75% of SUVmax in that region. Four kinetic parameters (K1, k2, k3, k4) and the fractional blood volume (fbv) which accounts for the non-zero vascular space within the tumor ROI, describe the model. The analysis was carried out by fitting the measured tumor time-activity curves (TACs) with a two-exponential model of the general form: The fit of equation [1] to the experimentally acquired tumor TACs was implemented in Matlab (The Mathworks, Inc., v. R2014b), utilizing a Nelder-Mead simplex direct search. The fit was governed by the minimization of the sum over all time points of square differences between the measured values and the model prediction (Figure S2).

PSMA+ LNCaP cells = experiment: Cell-specific internalization experiment in LNCaP cells; format: cell-based
Method: (§2) 10^5 LNCaP or PC3 cells were seeded in poly-D-lysine-coated 12-well plates 24–48 h before the assay so that cells could reach 95 % confluency. The medium was removed 1 h before the assay, and the cells were rinsed twice with PBS. After the addition of Krebs buffer (1 mL) to each well, the cells were incubated at 37 °C. […] Cellular uptake was stopped by removing incubation media from the cells and washing the wells twice with ice-cold PBS buffer (1 mL). Surface-bound radioactivity was removed from the cells through incubating the cells twice with 0.5 mL glycine-HCl in PBS (50 mM, pH 2.5) for 5 min at 37 °C. Cells were washed again with ice-cold PBS before the addition of radio-immunoprecipitation assay (RIPA) buffer (400 μL) to lyse the cells. Cells were returned into the incubator for 10 min, and cell lysates were collected for counting. Radioactivity of surface-bound and internalized fraction was measured in a WIZARD2 Automatic gamma counter (Perkin Elmer, Waltham, MA, USA). Total protein concentration in the samples was determined by the bicinchoninic acid method (BCA; Pierce, Thermo Scientific 23227) using bovine serum albumin (800, 600, 400, 300, 200, 100, 50 μg/mL, blank) as protein standard. Data are expressed as percent of total uptake per 1 mg protein (% of total uptake/mg protein).

PSMA− PC3 tumor [7] = experiment: Tracer kinetic analysis (reversible two-tissue compartmental model), PC3 tumors; format: in vivo, mouse
Method: as §1

PSMA− PC3 cells = experiment: Cell-specific internalization experiment in PC3 cells; format: cell-based; conditions: 60 min, 37 °C
Method: as §2

[8] = LNCaP, two-tissue compartmental model

CC(C)(C)OC(=O)CCC(NC(=O)NC(CCCCNC(=O)c1ccc([N+](C)(C)C)nc1)C(=O)OC(C)(C)C)C(=O)OC(C)(C)C (centres unmarked) [Compound 9]
storage time without significant decomposition [1]: at least 3 months

O=C(O)CCC(NC(=O)NC(CCCCNC(=O)c1ccc([18F])nc1)C(=O)O)C(=O)O [[^18F]DCFPyL, (S)-2-[3-((S)-1-carboxy-5-[3-(6-fluoropyridine)carbonyl)amino)pentyl)ureido]-pentanedioic acid]
radiometabolites in urine (radio-HPLC) ([2]; 60 min p.i.): contained only parent compound; also recorded: no radiometabolites were detected | binding to plasma proteins (distribution in blood) ([2]; n = 3): low binding of the radiotracer to blood cells and plasma proteins; also recorded: only minimal binding to plasma proteins | radiometabolites in plasma (radio-HPLC) ([2]; over 60 min p.i.): no radiometabolites were detected | SUV5min, radioactivity uptake in LNCaP tumors (PSMA+ LNCaP tumor [3]; 5 min p.i., dynamic PET): 0.95 | SUV60min, muscle as reference tissue (PSMA+ LNCaP tumor [3]; 60 min p.i.): 0.06 | SUV60min, radioactivity uptake in LNCaP tumor (control) (PSMA+ LNCaP tumor [3]; 60 min p.i., dynamic PET): 1.1 and 1.1 ± 0.1 | SUV60min, LNCaP tumor, blocked (PSMA+ LNCaP tumor [3]; 60 min p.i., pre-dosed with 300 μg nonradioactive DCFPyL): 0.22 and 0.2 ± 0.05 | SUV60min, radioactivity uptake in PC3 tumors (PSMA− PC3 tumor [4]): 0.11 and 0.1 | stability of product in saline [5]: > 95% | coefficient k3/(k3 + k2), fraction entering the second compartment (PSMA+ LNCaP tumor [6]; LNCaP tumors): 0.314 | retention k3/k4 (PSMA+ LNCaP tumor [6]; LNCaP tumors): 20.5 | K1 (flow of radiotracer from blood to tissue) (PSMA+ LNCaP tumor [6]; [8]): 0.12 min⁻¹ | k2 (flow from tissue into blood) (PSMA+ LNCaP tumor [6]; [8]): 0.18 min⁻¹ | k3 (binding of radiotracer to tissue) (PSMA+ LNCaP tumor [6]; [8]): 0.08 min⁻¹ and 0.082 min⁻¹ | k4 (dissociation from tissue) (PSMA+ LNCaP tumor [6]; [8]): 0.004 min⁻¹ | radioactivity uptake, internalized fraction (PSMA+ LNCaP cells; 60 min, 37 °C): 35.05 ± 0.69 % of total uptake/mg protein | radioactivity uptake, membrane-bound fraction (PSMA+ LNCaP cells; 60 min, 37 °C): 45.47 ± 1.01 % of total uptake/mg protein | fraction of internalized radioactivity (PSMA+ LNCaP cells; 60 min incubation): 44% | coefficient k3/(k3 + k2), fraction entering the second compartment (PSMA− PC3 tumor [7]): 0.058 | k3 (binding of radiotracer to tissue) (PSMA− PC3 tumor [7]): 0.008 | net delivery K1/k2 (PSMA− PC3 tumor [7]): 0.49 | retention k3/k4 (PSMA− PC3 tumor [7]): 0.13 | radioactivity uptake, internalized fraction (PSMA− PC3 cells): 0.76 ± 0.05 % of total uptake/mg protein | radioactivity uptake, membrane-bound fraction (PSMA− PC3 cells): 4.30 ± 0.40 % of total uptake/mg protein

O=C(O)CC[C@H](NC(=O)N[C@@H](CCCCNC(=O)c1ccc(F)nc1)C(=O)O)C(=O)O [DCFPyL, reference compound]
reduction of [18F]DCFPyL radioactivity uptake in LNCaP tumor upon pretreatment with DCFPyL (PSMA+ LNCaP tumor [3]; 60 min p.i., 300 μg DCFPyL before radiotracer): 80%

From article PMC4854855 (EJNMMI Research, 2016)
